The source of these data is patent US20240083857A1, “2-Methyl-Quinazolines” (Bayer Pharma Aktiengesellschaft, priority 2017, published 2024).

Experiment [1] addresses K-Ras^G12C : hSOS1 interaction (Homo sapiens, UniProt Q07889). As to the kind of experiment: Biochemical assay 1: K-Ras^G12C interaction assay with hSOS1 (HTRF). Format: binding. As to conditions: read-out: Assay 1 (KRAS-SOS Interaction) activity expressed as IC50. The method, then: Biochemical assay 1: K-Ras^G12C Interaction Assay with hSOS1
This assay quantifies the equilibrium interaction of human SOS1 with K-Ras^Gl2C. Detection of the interaction is achieved by measuring homogenous time-resolved fluorescence resonance energy transfer (HTRF) from antiGST-Europium (FRET donor) bound to GST-K-Ras^G12C to anti-6His-XL665 bound to His-tagged hSOS1 (FRET-acceptor).
The assay buffer contained 5 mM HEPES pH 7.4 (Applichem), 150 mM NaCl (Sigma), 10 mM EDTA (Promega), 1 mM DTT (Thermofisher), 0.05% BSA Fraction V, pH 7.0, (ICN Biomedicals), 0.0025% (v/v) Igepal (Sigma) and 100 mM KF (FLUKA).
Concentrations of protein batches used were optimized to be within the linear range of the HTRF signal. A Ras working solution was prepared in assay buffer containing typically 10 nM GST-hK-RasG12C and 2 nM antiGST-Eu(K) (Cisbio, France). A SOS working solution was prepared in assay buffer containing typically 20 nM His-hSOS1 and 10 nM anti-6His-XL665 (Cisbio, France). An inhibitor control solution was prepared in assay buffer containing 10 nM anti-6His-XL665 without hSOS1.
(§1) Fifty nl of a 100-fold concentrated solution of the test compound in DMSO were transferred into a black microtiter test plate (384 or 1536, Greiner Bio-One, Germany). For this, either a Hummingbird liquid handler (Digilab, MA, USA) or an Echo acoustic system (Labcyte, CA, USA) was used.
All steps of the assay were performed at 20° C. A volume of 2.5 μl of the Ras working solution was added to all wells of the test plate using a Multidrop dispenser (Thermo Labsystems). After 2 min preincubation, 2.5 μl of the SOS working solution were added to all wells except for those wells at the side of the test plate that were subsequently filled with 2.5 μl of the inhibitor control solution. After 60 min incubation the fluorescence was measured with a Pherastar (BMG, Germany) using the HTRF module (excitation 337 nm, emission 1: 620 nm, emission 2: 665 nm).
(§2) IC50 values were calculated by 4-Parameter fitting using a commercial software package (Genedata Screener, Switzerland).

For experiment [2], the target named is human SOS1 (nucleotide exchange of K-Ras^G12C) (Homo sapiens, UniProt Q07889). As to the kind of experiment: Biochemical assay 2: K-Ras^G12C activation assay by hSOS1 at high GTP concentration (HTRF). As to conditions: high GTP; read-out: Assay 2 (KRAS-Activation by SOS high GTP) activity expressed as IC50.
Description: Biochemical Assay 2: K-Ras^G12C Activation Assay by hSOS1 at High GTP Concentration
This assay quantifies human SOS1-mediated nucleotide exchange of K-Ras^G12C preloaded with a fluorescent […] and in presence of an excess of free GTP. Loaded hK-Ras^G12C generates a high HTRF-signal by energy transfer from antiGST-Terbium (FRET donor) bound to K-Ras to the loaded fluorescent GDP analog (FRET-acceptor). SOS1 activity exchanges the fluorescent GDP for non-fluorescent GTP and therefore leads to a reduction of the HTRF signal.
The fluorescent GDP-analog EDA-GDP-Dy647P1 (2′/3′-O-(2-Aminoethyl-carbamoyl)-guanosine-5′-diphosphate labelled with Dy647P1 (Dyomics GmbH, Germany)) was synthesized by Jena Biosciences GmbH (Germany) and supplied as a 1 mM aqueous solution.
Concentrations of protein batches used were optimized to be within the linear range of the HTRF signal.
Preparation of GST-tagged hK-Ras^Gl2C loaded with fluorescent nucleotide was performed as follows: incubation of 11.5 μM hK-Ras^Gl2C with 5-fold excess GDP-Dy647 nucleotide (54 μM) in 500 μl NLS-buffer (RAS activation Kit Jena Bioscience, Kat. #PR-950) for 10 min at 37° C. Addition of 20 μl 1 M MgCl2 (Sigma) to final 40 mM and store on ice. Purification into buffer (10 mM HEPES pH 7.4 (Applichem), 150 mM NaCl (Sigma), 5 mM MgCl2 (Sigma)) by use of a PD-Minitrap desalting column (GE Healthcare). Concentration of 1 ml purified hK-Ras-GDP-Dy647 is approx. 4-5 μM.
(§3) The assay buffer contained 10 mM HEPES pH 7.4 (Applichem), 150 mM NaCl (Sigma), 5 mM MgCl2 (Sigma), 1 mM DTT (Thermofisher), 0.05% BSA Fraction V, pH 7.0, (ICN Biomedicals), 0.0025% (v/v) Igepal (Sigma).
A Ras working solution was prepared in assay buffer containing typically 80 nM loaded GST-hK-RasG12C-EDA-GDP-Dy647P1 and 2 nM antiGST-Tb (Cisbio, France). A hSOS1 working solution was prepared in assay buffer containing typically 8 nM His-hSOS1 and 100 μM GTP (Jena Bioscience, Germany). An inhibitor control solution was prepared in assay buffer containing the same concentration of […].
as §1
All steps of the assay were performed at 20° C. A volume of 2.5 μl of the Ras working solution was added to all wells of the test plate using a Multidrop dispenser (Thermo Labsystems). After 2 min preincubation, 2.5 μl of the hSOS1 working solution were added to all wells except for those wells at the side of the test plate that were subsequently filled with 2.5 μl of the inhibitor control solution. After 20 min incubation the fluorescence was measured with a Pherastar (BMG, Germany) using the HTRF module (excitation 337 nm, emission 1: 620 nm, emission 2: 665 nm).
as §2

For experiment [3], the target named is human SOS1 (loading of human K-Ras^G12C-GDP with fluorescent GTP-analog) (Homo sapiens, UniProt Q07889). As to the kind of experiment: Biochemical assay 3: K-Ras^G12C activation assay by hSOS1 (HTRF). As to conditions: no GTP; read-out: Assay 3 (KRAS-Activation by SOS no GTP) activity expressed as IC50.
Description: Biochemical assay 3: K-Ras^G12C Activation Assay by hSOS1
K-Ras is a small GTPase that can bind GDP and GTP. The guanine nucleotide exchange factor SOS catalyzes the activation of K-Ras by promoting the exchange of GDP to GTP. SOS binds to K-Ras-GDP thereby opening the GDP-binding pocket to facilitate GDP release. Rebinding of excess nucleotide leads to dissociation of the K-Ras-SOS intermediate complex leaving K-Ras loaded with the nucleotide.
This assay quantifies human SOS1-mediated loading of human K-Ras^G12C-GDP with a fluorescent GTP-analog. Detection of successful loading is achieved by measuring homogenous time-resolved fluorescence resonance energy transfer (HTRF) from antiGST-Terbium (FRET donor) bound to GST-K-RasG12C to the loaded fluorescent GTP analog (FRET-acceptor).
The fluorescent GTP-analog EDA-GTP-Dy647P1 (2′/3′-O-(2-Aminoethyl-carbamoyl)-guanosine-5′-triphosphate labelled with Dy647P1 (Dyomics GmbH, Germany)) was synthesized by Jena Biosciences GmbH (Germany) and supplied as a 1 mM aqueous solution.
as §3
Concentrations of protein batches used were optimized to be within the linear range of the HTRF signal. A Ras working solution was prepared in assay buffer containing typically 100 nM GST-hK-RasG12C and 2 nM antiGST-Tb (Cisbio, France). A hSOS1 working solution was prepared in assay buffer containing typically 20 nM hSOS1 and 200 nM EDA-GTP-Dy647P1. An inhibitor control solution was prepared in assay buffer containing 200 nM EDA-GTP-Dy647P1 without hSOS1.
as §1
All steps of the assay were performed at 20° C. A volume of 2.5 μl of the Ras working solution was added to all wells of the test plate using a Multidrop dispenser (Thermo Labsystems). After 10 min preincubation, 2.5 μl of the hSOS1 working solution were added to all wells except for those wells at the side of the test plate that were subsequently filled with 2.5 μl of the inhibitor control solution. After 30 min incubation the fluorescence was measured with a Pherastar (BMG, Germany) using the HTRF module (excitation 337 nm, emission 1: 620 nm, emission 2: 665 nm).
as §2

Molecules are shown by their SMILES.

Turning to `COc1cc2nc(C)nc(N[C@@H](C)c3ccc(-c4ccc(CO)s4)s3)c2cc1OC` (racemic) [Example 52, (5′-{1-[(6,7-dimethoxy-2-methylquinazolin-4-yl)amino]ethyl}-2,2′-bithiophen-5-yl)methanol], the IC50 in experiment [1] was determined as 4.29 µM; in experiment [2] it was 5.46 µM.
Turning to `COc1cc2nc(C)nc(N[C@@H](C)c3ccc(-c4ccc(C(=O)N(C)C)cc4)s3)c2cc1OC` (racemic) [Example 176, 4-(5-{1-[(6,7-dimethoxy-2-methylquinazolin-4-yl)amino]ethyl}thiophen-2-yl)-N,N-dimethylbenzamide], the IC50 in experiment [1] is 3.49 µM; in experiment [2] it was 5.82 µM.
For `COc1cc2nc(C)nc(N[C@@H](C)c3ccc(-c4cccc(NS(C)(=O)=O)c4)s3)c2cc1OC` (racemic) [Example 165, N-[3-(5-{1-[(6,7-dimethoxy-2-methylquinazolin-4-yl)amino]ethyl}thiophen-2-yl)phenyl]methanesulfonamide], in that order: 10.6 µM and 16.4 µM.
In the case of `COc1cc2nc(C)nc(N[C@@H](C)c3ccc(-c4cccc(C(=O)N(C)C)c4)s3)c2cc1OC` (racemic) [Example 51, 3-(5-{1-[(6,7-dimethoxy-2-methylquinazolin-4-yl)amino]ethyl}thiophen-2-yl)-N,N-dimethylbenzamide], the IC50 was 5.63 µM in experiment [1] and 5.9 µM in experiment [2].
The matching figures for `COc1cc2nc(C)nc(N[C@@H](C)c3ccc(-c4ccc(CNS(C)(=O)=O)cc4)s3)c2cc1OC` (racemic) [Example 140, N-[4-(5-{1-[(6,7-dimethoxy-2-methylquinazolin-4-yl)amino]ethyl}thiophen-2-yl)benzyl]methanesulfonamide]: 5.33 µM and 5.26 µM.
For `COc1cc2nc(C)nc(N[C@@H](C)c3ccc(-c4cccc(CNS(C)(=O)=O)c4)s3)c2cc1OC` (racemic) [Example 139, N-[3-(5-{1-[(6,7-dimethoxy-2-methylquinazolin-4-yl)amino]ethyl}thiophen-2-yl)benzyl]methanesulfonamide], in that order: 4.7 µM and 6.13 µM.
For `COc1cc2nc(C)nc(N[C@@H](C)c3ccc(-c4ccc(CNC(C)=O)cc4)s3)c2cc1OC` (racemic) [Example 138, N-[4-(5-{1-[(6,7-dimethoxy-2-methylquinazolin-4-yl)amino]ethyl}thiophen-2-yl)benzyl)acetamide], in that order: 5.57 µM and 7.43 µM.
Turning to `COc1cc2nc(C)nc(N[C@@H](C)c3ccc(-c4cncnc4)s3)c2cc1OC` (racemic) [Example 42, 6,7-dimethoxy-2-methyl-N-{1-[5-(pyrimidin-5-yl)thiophen-2-yl]ethyl}quinazolin-4-amine], the results for the IC50 in experiment [1] and in experiment [2] were 4.27 µM and 5.58 µM, respectively.
With `CCCNC(=O)c1ccc(-c2ccc([C@H](C)Nc3nc(C)nc4cc(OC)c(OC)cc34)s2)cc1` (racemic) [Example 141, 4-(5-{1-[(6,7-dimethoxy-2-methylquinazolin-4-yl)amino]ethyl}thiophen-2-yl)-N-propylbenzamide], the IC50 in experiment [3] was determined as 11.1 µM; in experiment [1] it was 5.63 µM.
For `COc1cc2nc(C)nc(N[C@@H](C)c3ccc(-c4ccc(-c5nnc(C)o5)cc4)s3)c2cc1OC` (racemic) [Example 128, 6,7-dimethoxy-2-methyl-N-[1-{5-[4-(5-methyl-1,3,4-oxadiazol-2-yl)phenyl]thiophen-2-yl}ethyl]quinazolin-4-amine], the results for the IC50 in experiment [1] and in experiment [2] were 13.9 µM and 16.9 µM, respectively.
Regarding `COc1cc2nc(C)nc(N[C@@H](C)c3ccc(-c4ccc(S(C)(=O)=O)cc4)s3)c2cc1OC` (racemic) [Example 149, 6,7-dimethoxy-2-methyl-N-[1-{5-[4-(methylsulfonyl)phenyl]thiophen-2-yl}ethyl]quinazolin-4-amine], the IC50 in experiment [1] stood at 2.36 µM; in experiment [2], 4.3 µM.
For `COCc1ccccc1-c1ccc([C@H](C)Nc2nc(C)nc3cc(OC)c(OC)cc23)s1` (racemic) [Example 50, 6,7-dimethoxy-N-[1-{5-[2-(methoxymethyl)phenyl]thiophen-2-yl}ethyl]-2-methylquinazolin-4-amine], in that order: 9.85 µM and 20 µM.
For `COc1cc2nc(C)nc(N[C@@H](C)c3ccc(-c4cccc(S(C)(=O)=O)c4)s3)c2cc1OC` (racemic) [Example 173, 6,7-dimethoxy-2-methyl-N-[1-{5-[3-(methylsulfonyl)phenyl]thiophen-2-yl}ethyl]quinazolin-4-amine], in that order: 6.88 µM and 8.05 µM.

In general, IC50 refers to the point on the concentration scale where inhibition reaches its midpoint.
